Patent publication US8129532B2, “Amino(oligo)thiophene dyes, preparation thereof, and optical methods of use” (The University of Connecticut, priority 2007, dated 2012)

Key:
[1] = test system: NIE-115 mouse neuroblastoma; test: Time-dependence (kinetics) of SHG and 2PF signal change after voltage-clamp step; format: cell-based; conditions: for SHG Kinetics (exponential time constant): time resolution 5 ms
From the text: For full details of our non-linear imaging microscope, we refer the reader to previously published descriptions. A. C. Millard, P. J. Campagnola, W. Mohler, A. Lewis, and L. M. Loew, “Second Harmonic Imaging Microscopy,” Meth. Enzymol. 361, 47-69 (2003); Millard, A. C., L. Jin, and L. M. Loew, “Second Harmonic Generation Imaging Microscopy with a High Power Ultrafast Fiber Laser,”Commercial and Biomedical Applications of Ultrafast Lasers. 5714-5716, 92-98 (2005); A. C. Millard, L. Jin, M.-D. Wei, J. P. Wuskell, A. Lewis, and L. M. Loew, “Sensitivity of Second Harmonic Generation from Styryl Dyes to Transmembrane Potential,” Biophys. J. 86, 1169-1176 (2004). Our current microscope combines a Fluoview (Olympus) scan-head and an Axiovert (Zeiss) inverted microscope constructed for multiple imaging methodologies including wide-field, one-photon excitation fluorescence imaging, as well as SHG and 2PF imaging. Our laser sources include a Mira (Coherent) Ti:sapphire laser and a Femtopower (Fianium) fiber laser operating at 1064 nm. Millard, A. C., L. Jin, and L. M. Loew, “Second Harmonic Generation Imaging Microscopy with a High Power Ultrafast Fiber Laser,”Commercial and Biomedical Applications of Ultrafast Lasers. 5714-5716, 92-98 (2005). For excitation, we routinely use an IR-Achroplan (Zeiss) 40×, 0.8 NA water-immersion objective though for shorter wavelengths we also use an A-Plan (Zeiss) 40×, 0.65 NA air objective. Fluorescence is imaged (for linear imaging) or collected (for non-linear imaging) back through the excitation objective, while SHG is collected in the forward, transmitted light direction by a condenser, either 0.8 NA or 0.55 NA (Zeiss). For optimal collection, the numerical aperture of the condenser should be at least 1/√2 of the numerical aperture of the excitation objective (L. Moreaux, O. Sandre, S. Charpak, M. Blanchard-Desce, and J. Mertz, “Coherent Scattering in Multi-Harmonic Light Microscopy,” Biophys. J. 80, 1568-1574 (2001); L. Moreaux, O. Sandre, and J. Mertz. “Membrane Imaging by Second Harmonic Generation Microscopy,” J. Opt. Soc. Am. B. 17, 1685-1694 (2000)), though in practice a condenser of slightly lower numerical aperture will often suffice. Since the wavelength of second harmonic light is precisely half that of the excitation light, the choice of filter for SHG imaging is greatly simplified and the primary concern is the blocking of the excitation light that is also transmitted through the sample as well as fluorescence that is emitted forwards.
NIE-115 mouse neuroblastoma were cultured in DMEM with 10% fetal bovine serum and 1% antibiotic-antimycotic (Invitrogen, Carlsbad, Calif.) in a 60 mm plastic dish (353002, Becton Dickinson, Franklin Lakes, N.J.). The culture was maintained at 37° C. with 5% CO2 for a period of 48 hours prior to experimentation.
For experimentation the growth medium was replaced with 3 mL of Earle's Balanced Salt Solution (EBSS, Sigma, St. Louis, Mo.) with 20 mM HEPES (Merck Biosciences AG, Laufelfingen, Switzerland). The internal buffer, injected into the patch pipette, was a potassium aspartate (140 mM, Sigma, St. Louis, Mo.), sodium chloride (5 mM, Sigma, St. Louis, Mo.) and HEPES (10 mM) solution at a pH of 7.35. The pH was adjusted with potassium hydroxide and hydrochloric acid.
For characterizing the voltage-sensitivity of SHG and 2PF, we used a slow (˜0.1 Hz) switching protocol as previously described (A. C. Millard, P. J. Campagnola, W. Mohler, A. Lewis, and L. M. Loew, “Second Harmonic Imaging Microscopy,” Meth. Enzymol. 361, 47-69 (2003); Millard, A. C., L. Jin, and L. M. Loew, “Second Harmonic Generation Imaging Microscopy with a High Power Ultrafast Fiber Laser,” Commercial and Biomedical Applications of Ultrafast Lasers. 5714-5716, 92-98 (2005); A. C. Millard, L. Jin, M.-D. Wei, J. P. Wuskell, A. Lewis, and L. M. Loew, “Sensitivity of Second Harmonic Generation from Styryl Dyes to Transmembrane Potential,” Biophys. J. 86, 1169-1176 (2004)) with a 50 mV step. […]

[2] = One-photon absorption and emission spectra in multilamellar lipid vesicles, water and ethanol; format: physicochemical; conditions: for Absorbance MLV: multilamellar lipid vesicles; for 1PF Abs. Max / 1PF Em. Max: one photon, soybean multi-lamellar lipid vesicles
From the text: […] The column indicating relative signal change for one-photon fluorescence also lists the excitation light source used and the lower bounds of the long-pass emission detected.
Absorption and emission spectra were obtained for a series of dyes with different acceptors: pyridinium (PY-1261), quinolinium (PY-212), and acridinium (PY-2240).

[3] = One-photon fluorescence relative signal change per 100 mV; conditions: excitation / long-pass emission (nm) given
From the text: The left-most data columns of Table 1 are the absorption and emission maxima for one photon fluorescence in soybean multi-lamellar lipid vesicles used to mimic the membrane environment. The column indicating relative signal change for one-photon fluorescence also lists the excitation light source used and the lower bounds of the long-pass emission detected.

SMILES	SHG kinetics, in words [1]	Absorbance ethanol [2] [nm]	Absorbance MLV [2] [nm]	1PF Abs. Max [2] [nm]	1PF Em. Max [2] [nm]	Absorbance water [2] [nm]	1PF Change (ΔF/F-100 mv) [3]	SHG Kinetics (exponential time constant) [1] [ms]
CCN(CC)c1ccc(-c2ccc(/C=C/c3cc[n+](CCC[N+](CC)(CC)CC)cc3)s2)s1 [PY-1261, Di-2-BTEPPTEA]	instantaneous	614	547	547	686	539	5.0E−002; 625/>715 ΔF/F-100 mv	–
CCCN(CCC)c1ccc(-c2ccc(/C=C/c3cc[n+](CCC[N+](CC)(CC)CC)cc3)s2)s1 [PY-1286, Di-3-BTEPPTEA]	slower kinetic response	616	547	547	692	567	1.8E−001; 640/>715 ΔF/F-100 mv	27 ± 1
CCCCN(CCCC)c1ccc(-c2ccc(/C=C/c3cc[n+](CCC[N+](CC)(CC)CC)cc3)s2)s1 [PY-1266, Di-4-BTEPPTEA]	slower kinetic response	624	552	552	694	555	1.0E−001; 635/>715 ΔF/F-100 mv	23 ± 2
